Measured values from article PMC5219908, “Expression, purification and kinetic characterization of recombinant benzoate dioxygenase from Rhodococcus ruber UKMP-5M” (Molecular Biology Research Communications, 2016).

Tested on: T1, benzoate dioxygenase
T1 construct: gene benA; benA amplicon 642 bp (about 213 residues, much shorter than a usual BenA of about 450), His-tag from pET28b, E. coli BL21(DE3), ion exchange; primers encode start MELDRGPAG and end RDVPVYPF; no reductase or beta subunit added
Assay: NADH oxidation at […] nm, Lineweaver-Burk
Assay type: biochemical, Rhodococcus ruber
Conditions: 25 °C, 3 min; reduced nicotinamide cofactor (NADH; reagent list prints the phosphate form), FeSO4; substrate range printed as 0.1-1.2 mM, far above the Km; pH of kinetic assay not stated

O=C(O)c1ccccc1 [sodium benzoate]
Km: 5.58 µM
